Assay results taken from US9980967B1, “Method for overcoming drug resistance of EGFR mutation and cancerous stemness of human non-small cell lung carcinoma” (NATIONAL CHIAO TUNG UNIVERSITY, priority 2017, dated 2018).

What was measured:
A549-ON cells = assay: Annexin V/PI apoptosis flow cytometry in A549-ON cells; format: cell-based, human; details: 30 μM, early and late apoptosis, flow cytometry
Experimental: At the end of treatment, apoptosis was measured by Annexin V-PI staining using flow cytometry analysis. The population of Annexin V+/PI− cells represents cells undergoing early apoptosis (low right), whereas the fraction of Annexin V+/PI+ cell are those undergoing late apoptosis (upper right). The representative flow data were shown from one of three separate experiments with similar findings.
The bar represents the mean±S.E.M. ***p<0.001 indicates significant difference between untreated and SP101 or Gefitinib treated samples.
We compared the apoptosis levels of SP101 and Gefitinib in cancer stem-like A549-ON cells by Annexin V and PI staining. Please refer to FIG. 19. […] Please refer to FIG. 20. The average of total apoptosis follows SP101 and Gefitinib in the A549-ON cells around 69.29% and 7.59%, respectively.

H1975 xenograft tumors = assay: Xenografted human NSCLC (H1975) tumors in nude mice; format: in vivo; details: 30 mg/kg once per four days, during the treatment period
Excerpt: The results were obtained from twelve mice and the bar represents the mean±S.E.M.**p<0.01, indicating significant difference between control and SP101 treatment group mice. ###p<0.001 indicates significant differences between SP101 and Gefitinib-treated mice.
The tumor weight was means±*p<0.05 indicating significant differences between control and SP101 treatment group mice. #p<0.05 indicates significant differences between SP101 and Gefitinib-treated mice.
NSCLC tumors in nude mice were established. Seven-week-old nude mice were subcutaneously injected with 3×10^6 H1975 cells. Please refer to FIGS. 7 and 8. After 7 to 10 days inoculation, the nude mice were treated with vehicle or 30 mg/kg SP101 or 30 mg/kg Gefitinib once per four days and tumor sizes in the nude mice were measured every four days. The nude mice were sacrificed after treatment for 16 days; the tumors were harvested to measure tumor volume/weight and further analyze tumor tissues. […] Please refer to FIG. 9.

**Q.** How did the “average of total apoptosis” value (A549-ON cells) turn out when `COc1cc2ncnc(Nc3ccc(F)c(Cl)c3)c2cc1OCCCN1CCOCC1` [Gefitinib, reference compound] was run?
**A.** ~7.59%

**Q.** And the “body weight of the nude mice” value (H1975 xenograft tumors)?
**A.** did not alter
